Experimental data as given in ChEMBL document CHEMBL1150922, “A new photosystem II electron transfer inhibitor from Sorghum bicolor” (J Nat Prod, 1998).
pIC50: −log10 of the molar value. Active and inactive are the calls of the source. The calls are words filed in the database; no cut-off is given here.

Legend:
Spinacia oleracea = test: Reduction in light-induced chlorophyll fluorescence half-life in spinach thylakoids membrane at 0.3 to 1 uM; assay type: functional, cell membranes
Lactuca sativa [1] = test: Phytotoxicity against lettuce seedlings assessed as inhibition of seed germination at 0.1 mM after 4 days; assay type: functional, organism-based
Lactuca sativa [2] = test: Phytotoxicity against lettuce seedlings assessed as inhibition of seed germination at >0.3 mM after 4 days; assay type: functional, organism-based
[3] = Inhibition of photosystem 2 in spinach thylakoid membranes assessed as oxygen evolution; assay type: cell membranes, Spinacia oleracea; details: read-out: I50

Row | Structure (SMILES) | Activity (Spinacia oleracea) | Activity (Lactuca sativa [1]) | Activity (Lactuca sativa [2]) | pIC50 [3]
1 | C=CC/C=C\C/C=C\CCCCCCCC1=C(OC)C(=O)C=C(OC)C1=O | Active | inactive | Active | 6.55
2 | C=CC/C=C\C/C=C\CCCCCCCC1=C(O)C(=O)C=C(OCC)C1=O | Active | inactive | Active | 5.97
3 | CCNc1nc(Cl)nc(NC(C)C)n1 [ATRAZINE] | Active | inactive | Active | 6.03
4 | C=CC/C=C\C/C=C\CCCCCCCC1=C(O)C(=O)C=C(OC)C1=O [SORGOLEONE] | Active | inactive | Active | 7.00
